Data from ChEMBL document CHEMBL2157886, “Synthesis and evaluation of ¹⁸F-labeled styryltriazole and resveratrol derivatives for β-amyloid plaque imaging” (J Med Chem, 2012).
Blank lines part the entries; values can stand above or below the molecule they belong to.

Tests used:
[1] = Binding affinity to amyloid beta (1-42) aggregates
Brain [2] = experiment: Ratio of drug uptake in BALB/c mouse brain after 5 mins to 30 mins; assay type: ADME, tissue-based; conditions: in vivo
[3] = Displacement of [125I]TZDM from amyloid beta (1 to 42) aggregates after 3 hrs by gamma counting
Brain [4] = experiment: Drug uptake in ICR mouse brain at 1.11 MBq, iv after 120 mins postinjection; assay type: ADME, organism-based; conditions: in vivo, 2 h
Femur [5] = experiment: Drug uptake in ICR mouse femur at 1.11 MBq, iv after 30 mins postinjection; assay type: ADME, organism-based; conditions: in vivo, 0.5 h
Spleen [6] = experiment: Drug uptake in ICR mouse spleen at 1.11 MBq, iv after 30 mins postinjection; assay type: ADME, organism-based; conditions: in vivo, 0.5 h
Kidney [7] = experiment: Drug uptake in ICR mouse kidney at 1.11 MBq, iv after 60 mins postinjection; assay type: ADME, organism-based; conditions: in vivo, 1 h
Brain [8] = experiment: Drug uptake in ICR mouse brain at 1.11 MBq, iv after 60 mins postinjection; assay type: ADME, organism-based; conditions: in vivo, 1 h
Blood [9] = experiment: Drug uptake in ICR mouse blood at 1.11 MBq, iv after 60 mins postinjection; assay type: ADME, organism-based; conditions: in vivo, 1 h
Heart [10] = experiment: Drug uptake in ICR mouse heart at 1.11 MBq, iv after 120 mins postinjection; assay type: ADME, organism-based; conditions: in vivo, 2 h
Spleen [11] = experiment: Drug uptake in ICR mouse spleen at 1.11 MBq, iv after 120 mins postinjection; assay type: ADME, organism-based; conditions: in vivo, 2 h
Heart [12] = experiment: Drug uptake in ICR mouse heart at 1.11 MBq, iv after 30 mins postinjection; assay type: ADME, organism-based; conditions: in vivo, 0.5 h
Blood [13] = experiment: Drug uptake in ICR mouse blood at 1.11 MBq, iv after 120 mins postinjection; assay type: ADME, organism-based; conditions: in vivo, 2 h
Kidney [14] = experiment: Drug uptake in ICR mouse kidney at 1.11 MBq, iv after 30 mins postinjection; assay type: ADME, organism-based; conditions: in vivo, 0.5 h
Lung [15] = experiment: Drug uptake in ICR mouse lung at 1.11 MBq, iv after 120 mins postinjection; assay type: ADME, organism-based; conditions: in vivo, 2 h
Femur [16] = experiment: Drug uptake in ICR mouse femur at 1.11 MBq, iv after 2 mins postinjection; assay type: ADME, organism-based; conditions: in vivo
Femur [17] = experiment: Drug uptake in ICR mouse femur at 1.11 MBq, iv after 60 mins postinjection; assay type: ADME, organism-based; conditions: in vivo, 1 h
Muscle tissue [18] = experiment: Drug uptake in ICR mouse muscle at 1.11 MBq, iv after 30 mins postinjection; assay type: ADME, organism-based; conditions: in vivo, 0.5 h
Lung [19] = experiment: Drug uptake in ICR mouse lung at 1.11 MBq, iv after 2 mins postinjection; assay type: ADME, organism-based; conditions: in vivo
Kidney [20] = experiment: Drug uptake in ICR mouse kidney at 1.11 MBq, iv after 2 mins postinjection; assay type: ADME, organism-based; conditions: in vivo
Brain [21] = experiment: Ratio of drug uptake in mouse brain after 2 mins to 30 mins; assay type: ADME, tissue-based; conditions: in vivo
Muscle tissue [22] = experiment: Drug uptake in ICR mouse muscle at 1.11 MBq, iv after 60 mins postinjection; assay type: ADME, organism-based; conditions: in vivo, 1 h
Brain [23] = experiment: Drug uptake in ICR mouse brain at 1.11 MBq, iv after 30 mins postinjection; assay type: ADME, organism-based; conditions: in vivo, 0.5 h
Muscle tissue [24] = experiment: Drug uptake in ICR mouse muscle at 1.11 MBq, iv after 2 mins postinjection; assay type: ADME, organism-based; conditions: in vivo
Femur [25] = experiment: Drug uptake in ICR mouse femur at 1.11 MBq, iv after 120 mins postinjection; assay type: ADME, organism-based; conditions: in vivo, 2 h
Spleen [26] = experiment: Drug uptake in ICR mouse spleen at 1.11 MBq, iv after 2 mins postinjection; assay type: ADME, organism-based; conditions: in vivo
Heart [27] = experiment: Drug uptake in ICR mouse heart at 1.11 MBq, iv after 2 mins postinjection; assay type: ADME, organism-based; conditions: in vivo
Brain [28] = experiment: Ratio of drug uptake in mouse brain after 2 mins to 60 mins; assay type: ADME, tissue-based; conditions: in vivo
Muscle tissue [29] = experiment: Drug uptake in ICR mouse muscle at 1.11 MBq, iv after 120 mins postinjection; assay type: ADME, organism-based; conditions: in vivo, 2 h
Liver [30] = experiment: Drug uptake in ICR mouse liver at 1.11 MBq, iv after 2 mins postinjection; assay type: ADME, organism-based; conditions: in vivo
Spleen [31] = experiment: Drug uptake in ICR mouse spleen at 1.11 MBq, iv after 60 mins postinjection; assay type: ADME, organism-based; conditions: in vivo, 1 h
Liver [32] = experiment: Drug uptake in ICR mouse liver at 1.11 MBq, iv after 30 mins postinjection; assay type: ADME, organism-based; conditions: in vivo, 0.5 h
[33] = Octanol-water partition coefficient, log P of the compound; assay type: physicochemical
Heart [34] = experiment: Drug uptake in ICR mouse heart at 1.11 MBq, iv after 60 mins postinjection; assay type: ADME, organism-based; conditions: in vivo, 1 h
Liver [35] = experiment: Drug uptake in ICR mouse liver at 1.11 MBq, iv after 60 mins postinjection; assay type: ADME, organism-based; conditions: in vivo, 1 h
Lung [36] = experiment: Drug uptake in ICR mouse lung at 1.11 MBq, iv after 30 mins postinjection; assay type: ADME, organism-based; conditions: in vivo, 0.5 h
Liver [37] = experiment: Drug uptake in ICR mouse liver at 1.11 MBq, iv after 120 mins postinjection; assay type: ADME, organism-based; conditions: in vivo, 2 h
Kidney [38] = experiment: Drug uptake in ICR mouse kidney at 1.11 MBq, iv after 120 mins postinjection; assay type: ADME, organism-based; conditions: in vivo, 2 h
Brain [39] = experiment: Drug uptake in ICR mouse brain at 1.11 MBq, iv after 2 mins postinjection; assay type: ADME, organism-based; conditions: in vivo
Blood [40] = experiment: Drug uptake in ICR mouse blood at 1.11 MBq, iv after 30 mins postinjection; assay type: ADME, organism-based; conditions: in vivo, 0.5 h
Blood [41] = experiment: Drug uptake in ICR mouse blood at 1.11 MBq, iv after 2 mins postinjection; assay type: ADME, organism-based; conditions: in vivo
Lung [42] = experiment: Drug uptake in ICR mouse lung at 1.11 MBq, iv after 60 mins postinjection; assay type: ADME, organism-based; conditions: in vivo, 1 h
Brain [43] = experiment: Drug uptake in mouse brain after 2 mins; assay type: ADME, tissue-based; conditions: in vivo
[44] = Partition coefficient, log P of the compound; assay type: physicochemical; conditions: octanol/water
Cynomolgus monkey [45] = experiment: Drug uptake in cynomolgus monkey brain after 1.5 mins; assay type: ADME, organism-based, Macaca fascicularis; conditions: in vivo, 0.025 h
Cynomolgus monkey [46] = experiment: Drug uptake in cynomolgus monkey brain after 55 mins; assay type: ADME, organism-based, Macaca fascicularis; conditions: in vivo

Ki [1]: 1.9 nM
Compound: CN(C)c1ccc(-c2nc3ccc([125I])cc3s2)cc1

Ki [1]: 3.5 nM
Compound: CNc1ccc(-c2cn3c(n2)sc2cc(OC)ccc23)cc1

Ratio (Brain [2]): 9.1
Compound: COc1ccc2c(c1)sc1nc(-c3ccc(N[11CH3])cc3)cn12

Ki [3]: 4.95 nM
Compound: COc1cc(/C=C/c2ccc(F)cc2)cc(OC)c1

Ki [1]: 19.7 nM
Compound: [11CH3]Nc1ccc(-c2nc3ccc(O)cc3s2)cn1

Ratio (Brain [2]): 5.6
Compound: CNc1ccc(-c2cn3c(n2)sc2cc(OCC[18F])ccc23)cc1

Drug uptake (Brain [4]): 1 % ID/g
Drug uptake (Femur [5]): 5.24 % ID/g
Drug uptake (Spleen [6]): 1.23 % ID/g
Drug uptake (Kidney [7]): 2.76 % ID/g
Drug uptake (Brain [8]): 1.13 % ID/g
Drug uptake (Blood [9]): 0.43 % ID/g
Drug uptake (Heart [10]): 0.61 % ID/g
Drug uptake (Spleen [11]): 0.97 % ID/g
Drug uptake (Heart [12]): 1.35 % ID/g
Drug uptake (Blood [13]): 0.38 % ID/g
Drug uptake (Kidney [14]): 2.86 % ID/g
Drug uptake (Lung [15]): 1.16 % ID/g
Drug uptake (Femur [16]): 1.88 % ID/g
Drug uptake (Femur [17]): 9.73 % ID/g
Drug uptake (Muscle tissue [18]): 1.27 % ID/g
Drug uptake (Lung [19]): 8.17 % ID/g
Drug uptake (Kidney [20]): 10.46 % ID/g
Ratio (Brain [21]): 1.6
Drug uptake (Muscle tissue [22]): 0.74 % ID/g
Drug uptake (Brain [23]): 2.09 % ID/g
Drug uptake (Muscle tissue [24]): 3.67 % ID/g
Drug uptake (Femur [25]): 16.15 % ID/g
Drug uptake (Spleen [26]): 3.15 % ID/g
Drug uptake (Heart [27]): 7.22 % ID/g
Ratio (Brain [28]): 2.9
Drug uptake (Muscle tissue [29]): 1.07 % ID/g
Drug uptake (Liver [30]): 14.35 % ID/g
Drug uptake (Spleen [31]): 0.84 % ID/g
Drug uptake (Liver [32]): 5.99 % ID/g
logP [33]: 2.84
Drug uptake (Heart [34]): 0.56 % ID/g
Drug uptake (Liver [35]): 2.47 % ID/g
Drug uptake (Lung [36]): 1.72 % ID/g
Drug uptake (Liver [37]): 4.47 % ID/g
Drug uptake (Kidney [38]): 1.65 % ID/g
Drug uptake (Brain [39]): 3.26 % ID/g
Drug uptake (Blood [40]): 0.98 % ID/g
Drug uptake (Blood [41]): 2.08 % ID/g
Drug uptake (Lung [42]): 1.08 % ID/g
Compound: COc1cc(/C=C/c2ccc(OCCC[18F])cc2)cc(OC)c1

Drug uptake (Brain [4]): 0.48 % ID/g
Drug uptake (Femur [5]): 0.7 % ID/g
Drug uptake (Spleen [6]): 0.85 % ID/g
Drug uptake (Kidney [7]): 3.7 % ID/g
Drug uptake (Brain [8]): 0.52 % ID/g
Drug uptake (Blood [9]): 1.27 % ID/g
Drug uptake (Heart [10]): 0.71 % ID/g
Drug uptake (Spleen [11]): 0.49 % ID/g
Drug uptake (Heart [12]): 1.32 % ID/g
Drug uptake (Blood [13]): 0.98 % ID/g
Drug uptake (Kidney [14]): 7.32 % ID/g
Drug uptake (Lung [15]): 0.76 % ID/g
Drug uptake (Femur [16]): 1.49 % ID/g
Drug uptake (Femur [17]): 0.94 % ID/g
Drug uptake (Muscle tissue [18]): 0.74 % ID/g
Drug uptake (Lung [19]): 5.73 % ID/g
Drug uptake (Kidney [20]): 7.32 % ID/g
Ratio (Brain [21]): 7.9
Drug uptake (Muscle tissue [22]): 0.51 % ID/g
Drug uptake (Brain [23]): 0.68 % ID/g
Drug uptake (Muscle tissue [24]): 2.44 % ID/g
Drug uptake (Femur [25]): 1.54 % ID/g
Drug uptake (Spleen [26]): 2.36 % ID/g
Drug uptake (Heart [27]): 3.8 % ID/g
Ratio (Brain [28]): 10.3
Drug uptake (Muscle tissue [29]): 0.4 % ID/g
Drug uptake (Liver [30]): 12.5 % ID/g
Drug uptake (Spleen [31]): 0.6 % ID/g
Drug uptake (Liver [32]): 7.59 % ID/g
logP [33]: 1.74
Drug uptake (Heart [34]): 0.81 % ID/g
Drug uptake (Liver [35]): 3.47 % ID/g
Drug uptake (Lung [36]): 1.75 % ID/g
Drug uptake (Liver [37]): 3.47 % ID/g
Drug uptake (Kidney [38]): 1.86 % ID/g
Drug uptake (Brain [39]): 5.38 % ID/g
Drug uptake (Blood [40]): 2.16 % ID/g
Drug uptake (Blood [41]): 3.35 % ID/g
Drug uptake (Lung [42]): 1.04 % ID/g
Compound: CN(C)c1ccc(/C=C/c2cn(CC[18F])nn2)cc1

Ki [3]: 0.74 nM
Compound: COc1cc(/C=C/c2ccc(OCCF)cc2)cc(OC)c1

Ki [3]: 0.49 nM
Compound: COc1cc(/C=C/c2ccc(OCCCF)cc2)cc(OC)c1

Ki [1]: 0.8 nM
Compound: CN(C)c1ccc(-c2nc3ccc([125I])cc3o2)cc1

Ki [3]: 12.8 nM
Compound: CN(C)c1ccc(/C=C/c2cn(CCF)nn2)cc1

Ki [3]: 39.7 nM
Compound: Oc1cc(O)cc(/C=C/c2ccc(F)cc2)c1

Drug uptake (Brain [43]): 2.88 %ID
Compound: CN(C)c1ccc(-c2cn3cc([125I])ccc3n2)cc1

Ki [1]: 2.22 nM
Ratio (Brain [21]): 4.89
Drug uptake (Brain [43]): 7.77 % ID/g
logP [44]: 2.41
Compound: CNc1ccc(/C=C/c2ccc(OCCOCCOCC[18F])cc2)cc1 [FLORBETABEN F18]

Ki [1]: 2.87 nM
Ratio (Brain [28]): 3.9
logP [44]: 2.41
Compound: CNc1ccc(/C=C/c2ccc(OCCOCCOCC[18F])nc2)cc1 [FLORBETAPIR F 18]

Drug uptake (Cynomolgus monkey [45]): 5.2 %ID
Drug uptake (Cynomolgus monkey [46]): 0.5 %ID
Compound: CNc1ccc(-c2cc3cc(O)ccc3o2)c([18F])n1 [FLUTAFURANOL F 18]

Ki [1]: 0.74 nM
Compound: CNc1ccc(-c2nc3ccc(O)cc3s2)cc1[18F] [FLUTEMETAMOL F 18]
